{"source": "patent US11324774B2", "about": "“Compositions of oral alkaline salts and metabolic acid inducers and uses thereof” (Augusta University Research Institute, Inc., priority 2018, dated 2022)", "key": {"[1]": {"details": "for Glucose / HCO3− / Hct / pCO2 / pH / pO2: arterial blood, 0.1M NaHCO3 in drinking water", "text": "Arterial blood gas measurements: Dahl SS rats were anesthetized (2-5% isoflurane) and the left femoral artery was catheterized. Surgically implanted catheters were then tunneled under the skin and exposed between the shoulder blades. Catheters were protected by a light wire spring attached to a swivel (Instech Laboratories Inc, Plymouth Meeting, Pa.), which allows free 360-degree movement of the animal. Rats were individually housed and allowed to recover for 1 week before beginning experimental measurements. Catheters were filled with heparinized saline (30 U/mL) and connected to an infusion pump (Phd2000, Harvard Apparatus, Holliston, Mass.). Infusions of heparinized saline were maintained at 100 μL/hr over the course of the protocol. 0.2 mL arterial blood samples were taken prior to placing rats on treated water, on day 3 of low salt feeding and on day 7 of high salt feeding by disconnecting the catheter from the infusion pump proximal to emergence of the catheter from the rat and drawing arterial blood into a heparinized 1 mL syringe. Arterial blood gas measurements were performed on a Rapidpoint 4055 Blood gas analyzer (Seimens AG, Munich Germany) within 20 minutes of taking the sample. Arterial blood gas measurements on day 14 of HS feeding were taken at the time of sacrifice by left ventricular puncture in anesthetized (2-5% isoflurane) rats.\n(§1) Rat protocols: Dahl SS rats: All rats were maintained on low salt chow with ad libitum water (tap water). […] Following four days of low salt (LS) feeding, rats were placed on an 8% HS diet (AIN76A 8%; Dyets) for two weeks. 24 hour urine collections were obtained on day 3 of low salt and day 7 and day 14 of high salt feeding if applicable. Following 14 days of HS feeding, rats were anesthetized with isoflurane (2-5%) and tissue harvested for analysis.\nBlood gas/electrolytes: In a parallel study, rats were implanted with a femoral arterial catheter to allow arterial blood sampling."}, "[2]": {"details": "0.1M in drinking water", "procedure": "Urine collection: For urine collection rats were placed in rat metabolic cages for 24 hours (Nalgene, Rochester, N.Y.). Urine was collected and weighed for volume determination. Up to 10 mL of urine was stored at −80° C. for later analysis. All urinary data are presented as 24 hour urinary excretion.\nElectrolytes: Urinary Na, K and Cl measurements were obtained using an electrolyte analyzer (Easylite; Medica Co, Bedford Mass.). Samples were diluted 1:10, 1 part urine to 9 parts Easylyte Urine Diluent as per the manufactures instructions.\nas §1"}, "IL-6": {"test_system": "IL-6", "procedure": "(§2) IL-6 and TNF-α were determined in plasma samples using the microfluidic simple plex cartridge system following manufacturer specifications. Briefly, Simple Plex uses 25 μL of serum for measurement of the […] cytokines. The work flow of the Simple Plex assays is: (a) a test cartridge is primed with samples with each sample split into channels (i.e., TNF-α and IL-6 to react with their respective antibodies immobilized on glass nanoreactors; (b) after sample incubation, circuits in the cartridge are cleaned with wash buffer, and biotinylated detection antibody solutions are individually pumped into their respective channels to bind to protein analyte captured on the GNRs; (c) after incubation, unbound detection antibodies are washed away and a detection solution (i.e., streptavidin DyLight 650) is flowed into all channels to conjugate with the biotinylated detection antibodies; (d) the detection solution is washed away; detection fluorophores (i.e., DyLight 650) are excited with a 631 nm laser; and the fluorescence signals are read with a charge-coupled device (CCD) camera. The signals are used for quantification based on master calibrator curves provided by the manufacturer."}, "TNF-α": {"test_system": "TNF-α", "procedure": "as §2"}, "[3]": {"test_system": "TNF-α expressing splenic cells", "details": "spleens of rats, given orally in drinking solution", "procedure": "To identify and evaluate immune cells in splenic tissues, a flow cytometry-based assay was employed. Buffering capacity and pH were determined by titration of the solutions with HCl.\nTo identify and evaluate immune cells in splenic tissues, a flow cytometry-based assay was used."}, "[4]": {"test_system": "T-regulatory cells (FOXP3+ T-regs), TH17 cells", "experiment": "Circulating T-regulatory and TH17 cells in rats", "assay_type": "in vivo"}, "[5]": {"test_system": "kidney cells (M1/M2 macrophages)"}, "[6]": {"test_system": "spleen cells (M1/M2 macrophages)"}, "splenic macrophages": {"test_system": "splenic macrophages", "details": "3 days, 0.1M in drinking water (unpublished data)"}, "[7]": {"details": "compared to vehicle (0.1M NaCl)"}, "[8]": {"details": "healthy rats, 3 days of drinking, 0.1M"}, "[9]": {"details": "Kidney, 14 Days HS, 0.1M NaHCO3 in drinking water"}, "[10]": {"details": "Kidney, 3 days LS, 0.1M NaHCO3 in drinking water"}, "[11]": {"details": "Spleen, 14 Days HS, 0.1M NaHCO3 in drinking water"}}, "note": "Where two headings read alike, the source gives them in different places."}
{"smiles": "O=C([O-])O.[Na+]", "note": "[NaHCO3, sodium bicarbonate]", "values": [{"measurement": "markers of plasma acid base status (pH, pCO2, HCO3−)", "setting": "[1]; across the course of the study, versus vehicle", "result": "no significant difference"}, {"measurement": "Glucose", "setting": "[1]; Day 3 LS", "result": "195 ± 25", "unit": "mg/dL"}, {"measurement": "HCO3−", "setting": "[1]; Day 3 LS", "result": "25.2 ± 0.7", "unit": "mM"}, {"measurement": "Hct", "setting": "[1]; Day 3 LS", "result": "40 ± 0", "unit": "%"}, {"measurement": "pCO2", "setting": "[1]; Day 3 LS", "result": "38.3 ± 1.1"}, {"measurement": "pH", "setting": "[1]; Day 3 LS", "result": "7.43 ± 0.01"}, {"measurement": "pO2", "setting": "[1]; Day 3 LS", "result": "93.5 ± 2.4"}, {"measurement": "Glucose", "setting": "[1]; Day 7 HS", "result": "160 ± 16", "unit": "mg/dL"}, {"measurement": "HCO3−", "setting": "[1]; Day 7 HS", "result": "26.9 ± 0.6", "unit": "mM"}, {"measurement": "Hct", "setting": "[1]; Day 7 HS", "result": "39 ± 2", "unit": "%"}, {"measurement": "pCO2", "setting": "[1]; Day 7 HS", "result": "39.4 ± 3.2"}, {"measurement": "pH", "setting": "[1]; Day 7 HS", "result": "7.46 ± 0.02"}, {"measurement": "pO2", "setting": "[1]; Day 7 HS", "result": "113 ± 16"}, {"measurement": "Glucose", "setting": "[1]; Day 14 HS", "result": "235.4 ± 35", "unit": "mg/dL"}, {"measurement": "HCO3−", "setting": "[1]; Day 14 HS", "result": "26.1 ± 1.0", "unit": "mM"}, {"measurement": "Hct", "setting": "[1]; Day 14 HS", "result": "41 ± 2", "unit": "%"}, {"measurement": "pCO2", "setting": "[1]; Day 14 HS", "result": "37.4 ± 4.9"}, {"measurement": "pH", "setting": "[1]; Day 14 HS", "result": "7.46 ± 0.03"}, {"measurement": "pO2", "setting": "[1]; Day 14 HS", "result": "88.7 ± 8.5"}, {"measurement": "urinary K excretion", "setting": "[2]; [7]", "result": "no effect"}, {"measurement": "urinary Na excretion", "setting": "[2]; [7]", "result": "no effect"}, {"measurement": "urinary Cl excretion", "setting": "[2]; compared to vehicle, p=0.03", "result": "significantly lower"}, {"measurement": "IL-6", "setting": "IL-6; ingestion for 2 weeks", "result": "reduces"}, {"measurement": "IL-6", "setting": "IL-6; single dose, 60 minutes", "result": "reduces"}, {"measurement": "TNF-α", "setting": "TNF-α; ingestion for 2 weeks", "result": "reduces"}, {"measurement": "TNF-α", "setting": "TNF-α; single dose, 60 minutes", "result": "reduces"}, {"measurement": "number of TNF-α (inflammatory) expressing cells", "setting": "[3]", "result": "significantly reduced"}, {"measurement": "anti-inflammatory T-regulatory cells", "setting": "[4]; [8]", "result": "robust but identical increases"}, {"measurement": "pro-inflammatory TH17 cells", "setting": "[4]; [8]", "result": "decreases"}, {"measurement": "circulating anti-inflammatory T cells (FOXP3+ T-regs)", "setting": "[4]; rats, 4 days in drinking water", "result": "significantly increased"}, {"measurement": "IL-10 expressing macrophages (M2-polarized macrophages) in the kidney", "setting": "[5]; 14 days HS", "result": "increase"}, {"measurement": "TNFα expressing macrophages (M1-polarized macrophages) in the kidney", "setting": "[5]; 14 days HS, p<0.01", "result": "decrease"}, {"measurement": "CD3 (% total kidney)", "setting": "[5]; [9]", "result": "1.8 ± 0.3", "unit": "%"}, {"measurement": "CD4 (% of CD3)", "setting": "[5]; [9]", "result": "55 ± 2", "unit": "%"}, {"measurement": "CD11b/c (% total kidney)", "setting": "[5]; [9]", "result": "0.4 ± 0.04", "unit": "%"}, {"measurement": "CD44 (% of CD3)", "setting": "[5]; [9]", "result": "36 ± 5", "unit": "%"}, {"measurement": "CD69 (% of CD3)", "setting": "[5]; [9]", "result": "2.8 ± 0.7", "unit": "%"}, {"measurement": "FOXP3 (% of CD3/CD4)", "setting": "[5]; [9]", "result": "3.3 ± 0.5", "unit": "%"}, {"measurement": "IL-10 (% of total kidney)", "setting": "[5]; [9]", "result": "4.2 ± 0.3", "unit": "%"}, {"measurement": "IL-17 (% of total kidney)", "setting": "[5]; [9]", "result": "0.7 ± 0.1", "unit": "%"}, {"measurement": "M1 (% of total kidney)", "setting": "[5]; [9]", "result": "0.12 ± 0.02", "unit": "%"}, {"measurement": "M2 (% of total kidney)", "setting": "[5]; [9]", "result": "0.2 ± 0.03", "unit": "%"}, {"measurement": "TNFα (% of total kidney)", "setting": "[5]; [9]", "result": "2.0 ± 0.3", "unit": "%"}, {"measurement": "CD3", "setting": "[5]; [10]", "result": "1.1 ± 0.3", "unit": "%"}, {"measurement": "CD4", "setting": "[5]; [10]", "result": "54 ± 2", "unit": "%"}, {"measurement": "CD11b/c", "setting": "[5]; [10]", "result": "0.24 ± 0.02", "unit": "%"}, {"measurement": "CD44", "setting": "[5]; [10]", "result": "52 ± 3", "unit": "%"}, {"measurement": "CD69", "setting": "[5]; [10]", "result": "0.9 ± 0.3", "unit": "%"}, {"measurement": "FOXP3", "setting": "[5]; [10]", "result": "2.6 ± 0.5", "unit": "%"}, {"measurement": "IL-10", "setting": "[5]; [10]", "result": "4.8 ± 0.5", "unit": "%"}, {"measurement": "IL-17", "setting": "[5]; [10]", "result": "0.4 ± 0.2", "unit": "%"}, {"measurement": "M1", "setting": "[5]; [10]", "result": "0.16 ± 0.04", "unit": "%"}, {"measurement": "M2", "setting": "[5]; [10]", "result": "0.36 ± 0.02", "unit": "%"}, {"measurement": "TNFα", "setting": "[5]; [10]", "result": "1.4 ± 0.2", "unit": "%"}, {"measurement": "effect of NaHCO3 to promote M1 to M2 polarization in the kidney", "setting": "[5]; after removal of the spleen or manipulation of the spleen to midline, HS diet for 2 weeks", "result": "completely abolished"}, {"measurement": "macrophage polarization in kidney tissue", "setting": "[5]; low salt fed Dahl SS rats, p=0.007", "result": "polarization from predominately M1 to M2"}, {"measurement": "macrophage polarization with both marker sets", "setting": "[5]; spleen and kidney, 14 days HS, alternative markers CD68/CD163/CD206", "result": "M1 to M2 polarization"}, {"measurement": "CD3", "setting": "[6]; [11]", "result": "15.3 ± 0.8", "unit": "%"}, {"measurement": "CD4", "setting": "[6]; [11]", "result": "53 ± 1", "unit": "%"}, {"measurement": "CD11b/c", "setting": "[6]; [11]", "result": "7.3 ± 0.6", "unit": "%"}, {"measurement": "CD44", "setting": "[6]; [11]", "result": "35 ± 2", "unit": "%"}, {"measurement": "CD69", "setting": "[6]; [11]", "result": "7.2 ± 0.9", "unit": "%"}, {"measurement": "FOXP3", "setting": "[6]; [11]", "result": "6 ± 0.5", "unit": "%"}, {"measurement": "IL-10", "setting": "[6]; [11]", "result": "7.5 ± 0.7", "unit": "%"}, {"measurement": "IL-17", "setting": "[6]; [11]", "result": "2.8 ± 0.6", "unit": "%"}, {"measurement": "M1", "setting": "[6]; [11]", "result": "5.8 ± 0.5", "unit": "%"}, {"measurement": "M2", "setting": "[6]; [11]", "result": "8.3 ± 0.5", "unit": "%"}, {"measurement": "TNFα", "setting": "[6]; [11]", "result": "3 ± 0.5", "unit": "%"}, {"measurement": "macrophage polarization in splenic tissue", "setting": "[6]; high salt fed, p=0.005", "result": "polarization from predominately M1 to M2"}, {"measurement": "M2 macrophages", "setting": "splenic macrophages", "result": "no effect"}, {"measurement": "splenic macrophages", "setting": "splenic macrophages", "result": "increased"}]}
